How the values were obtained:
[1] = solubility of the organic solvents in water at 60° C.; format: physicochemical
Experimental: The organic solvent having high compatibility with oil is preferably a polar organic solvent as described above because excellent cleanability can be obtained. The polar organic solvent is particularly preferably an organic solvent having low compatibility with water, specifically solubility in water at 60° C. of 50 vol % or less, preferably 30 vol % or less. More specifically, the polar organic solvent is preferably selected from a propylene glycol alkyl ether-based compound represented by the following formula (I): [drawing 1]
Compatibility with water means ability of mixing with water in any ratio at 60° C.
(§1) The organic solvents and surfactants used in examples and comparative examples are given below.

[2] = solubility of the organic solvents in castor oil at 30° C.; format: physicochemical
Experimental: In the present invention, the organic solvent having high compatibility with oil is an organic solvent having high compatibility with oil adhered to an article to be cleaned, preferably an organic solvent which can be mixed with castor oil (Japanese Pharmacopoeia Act) as a typical example of the oil and standard oil in any ratio at 30° C. Preferred examples of the organic solvent having high compatibility with such oil include paraffin-based hydrocarbons such as dodecane, undecane and tridecane, naphthene-based hydrocarbons and polar organic solvents. Out of these, polar organic solvents are preferred. The polar organic solvents are preferably organic solvents having a dielectric constant of 8 or more, preferably 10 or more, such as glycol ether-based compounds, pyrrolidone-based compounds and imidazolidinone-based compounds. As the glycol ether-based compounds may be used ethylene glycol-based compounds but preferred are propylene glycol alkyl ether-based compounds.
as §1

| Compound | solubility in water [1] | solubility in castor oil [2] | solubility in water (in words) [1] |
| --- | --- | --- | --- |
| CCCOC(C)COC(C)CO (stereo not drawn) [DPP, dipropylene glycol monopropyl ether] | 10 vol % | infinitely soluble | – |
| CCCCOCC(C)O (stereo not drawn) [PB, propylene glycol monobutyl ether] | 6 vol % | infinitely soluble | – |
| dipropylene glycolmonomethyl ether [DPM] | – | infinitely soluble | infinitely soluble |
| CN1CCCC1=O [NMP, N-methylpyrrolidone] | – | infinitely soluble | infinitely soluble |
| CN1CCN(C)C1=O [DMI, 1,3-dimethyl-2-imidazolidinone] | – | infinitely soluble | infinitely soluble |
| CCCCCCCCCCCCCC [TD, n-tetradecane] | less than 1 vol % | infinitely soluble | – |
